# Results: patent US6835382B2, “Ii peptide therapeutics to enhance antigen presentation” (University of Massachusetts, priority 1996, dated 2004)
# Non-standard residues stand in square brackets, D forms with d.
# Key:
# [1] = test system: murine E^k MHC class II allele; test: AE101 series peptide prepulse assay, E^k allele; type: cell-based; conditions: Table 35; AE101 series peptide prepulse 64 μM; antigenic peptide 0.4 μM; supernatant dilution 1:2
# Description: Table 35: Activities of multiple substitution analogs of AE235, targeting the E^k and E^d allele, in an AE101 series peptide prepulse assay. In this assay the concentration of AE101 series peptides used during the prepulse was 64 μM. The concentrations of antigenic peptides were 0.3 μM for Ed and 0.4 μM for E^k. The supernatant dilutions taken into the HT-2 cell assay was 1:4 for E and 1:2 for E^k. The AE381 peptide is a head-to-tail cyclization: the amino terminal amino group is coupled through an amide linkage to the carboxyl terminal group. The AE 382 peptide is a side-to-tail cyclization: the epsilon amino group of Lys^4 is coupled through an amide linkage to the carboxyl terminal group.
# AE101 series peptide prepulse assays were carried out in the E^d and E^k systems as described for simultaneous competition assays with the following modifications. Fixed APC were first incubated for 6 h at 1×10^6DMEM-5% FCS with 64 μM of each AE101 series peptide or with PBS. The APC were then washed four times with ten volumes of DMEM-5% FCS, and were cocultured with T hybridoma cells and the indicated submaximal doses of antigenic peptides used in the simultaneous competition assays. The baseline T cell response was measured by culturing T hybridoma cells with antigenic peptide and PBS-pretreated APC.
# [2] = target: T1, murine A^d MHC class II allele (Mus musculus, UniProt P01921+P04228); test: simultaneous assay, A^d allele (A20 APC, 9.30.B2 T hybridoma, HEL11-25); type: cell-based; conditions: Table 2; for Times Baseline Response, A^d: AE peptide 64 μM, 0.05 μM HEL11-25, supernatant 1:2
# T1 construct: The A20 and CH27 B cell lymphoma lines express H-2^d and H-2^k alleles, respectively; endogenous in cells; host or cells: A20 B cell lymphoma (mitomycin C-treated)
# T1 sequence (P04228 24-256): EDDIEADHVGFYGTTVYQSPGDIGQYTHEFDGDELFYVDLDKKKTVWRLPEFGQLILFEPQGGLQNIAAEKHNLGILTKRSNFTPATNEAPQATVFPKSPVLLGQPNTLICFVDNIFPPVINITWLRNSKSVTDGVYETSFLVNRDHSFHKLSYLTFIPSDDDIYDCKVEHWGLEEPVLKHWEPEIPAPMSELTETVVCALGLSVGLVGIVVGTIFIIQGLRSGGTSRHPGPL
# T1 sequence (P01921 28-265): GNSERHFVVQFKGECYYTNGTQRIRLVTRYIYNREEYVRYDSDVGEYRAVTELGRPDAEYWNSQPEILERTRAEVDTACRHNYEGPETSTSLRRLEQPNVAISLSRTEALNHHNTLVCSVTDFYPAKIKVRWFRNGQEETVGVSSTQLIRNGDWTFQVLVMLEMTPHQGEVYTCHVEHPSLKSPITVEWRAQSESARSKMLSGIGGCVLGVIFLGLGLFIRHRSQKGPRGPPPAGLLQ
# Description: In the “simultaneous assay” the four components of the assay are cultured together for a 24 h period. The components of this primary culture, added at the same time or simultaneously, are: (a) the antigenic peptide, (b) mitomycin C-treated, MHC class II-positive antigen presenting cells (APC) with the MHC class II allele required for binding of the specific antigenic peptide and its presentation to the antigenic peptide-specific T cell hybridoma, (c) an AE101 series effector peptide, and (d) MHC class II allele-restricted T cell hybridoma specific for the antigenic peptide and the MHC class II allele restricting its presentation. At the end of the incubation of this primary culture, an aliquot of its supernatant is transferred into a second culture well for incubation with an interleukin-dependent lymphoblastoid cell line. The degree of stimulation of that second, indicator cell by the interleukins which had been released from the activated T cell hybridoma in the primary culture is measured by quantitating tritiated thymidine deoxyribose {[^3H]TdR} uptake into the DNA of the HT-2 indicator cells of that second culture.
# For these various assays, the following antigenic peptides were used: HEL11-25, hen egg lysozyme 11-25, AMKRHGLDNYRGYSL(A^d) (SEQ ID NO:5); HEL46-61, hen egg lysozyme 46-61, NTDGSTDYGILQINSR(Ak) (SEQ ID NO:6); HEL106-116, hen egg lysozyme 106-116, NAWVAWRNRCK (E^d) (SEQ ID NO:7); PGCC81-104, pigeon cytochrome c 81-104, […] (Ek) (SEQ ID NO:8), and THMCC82-103, tobacco hornworm moth cytochrome c 82-103, […] (Ek) (SEQ ID NO:9). AE101 series peptides were obtained from commercial sources. In general, the purity and composition of each peptide was confirmed by HPLC separation and mass spectrometry. The native protein antigens were HEL, hen egg lysozyme, and PGCC, pigeon cytochrome C. They were obtained from commercial sources.
# For the experiments of these Examples, several T cell hybridomas, which are specific for certain antigenic peptides, were used. The TPc9.1 T hybridoma is specific for pigeon cytochrome C 81-104 peptide presented on the murine class II MHC allele E^k. The TPc9.1 hybridoma responds heteroclitically to tobacco hornworm moth cytochrome c 82-103 on E^k. The 3A9 T hybridoma is specific for hen egg lysozyme 46-61 on A^k. The 9.30.B2 hybridoma is specific for hen egg lysozyme 11-25 on A^d, and the G28.C9 hybridoma is specific for hen egg lysozyme 106-116 on E^d. The A20 and CH27 B cell lymphoma lines express H-2^d and H-2^k alleles, respectively.
# Antigenic peptide-specific T cell activation was measured by the following procedure. Mitomycin C-treated A20 cells (A^dE^d) or CH27 cells APC (A^kE^k) were generated by incubating 5×10^6 cells/mL for 20 min at 37° C. with 0.025 mg/mL of mitomycin C (Sigma) in Dulbecco's Modified Eaglel's Medium (DMEM)/10 mM N-2(hydroxyethylpiperazine-N″[2-ethanesulfonic acid] (HEPES), followed by two washes with four volumes of DMEM-5% fetal calf serum (FCS), 10 mM HEPES. Fixed APC were generated by treating 1×10^6 cells/mL for 5 min with 0.5% paraformaldehyde in PBS (pH 7.2), followed by two washes with four volumes of DMEM-10% FCS, 10 mM HEPES. T cell hybridomas were irradiated 2200 rads before each assay.
# For the “simultaneous assay”, 5×10^4 mitomycin C-treated APC, 5×10^4 T hybridoma cells and a submaximal concentration of antigenic peptide were cultured with and without serial 4-fold dilutions of each AE101 series peptide, usually at 64 μM, 16 μM, 4 μM, and 1 μM, at pH 7.2-7.4, in complete DMEM-5% FCS, 10 mM HEPES, 1×nonessential amino acids (Sigma), 1 mM sodium pyruvate, 2 mM L-glutamine, 100 U/mL penicillin G, 100 μg/mL streptomycin sulfate, 5×10^−5 M 2-mercaptoethanol (2-ME). Wells containing only T hybridoma cells (T)+APC were included to monitor for background T cell activation; and wells containing T+APC+AE101 series peptide were included to monitor for non-specific T hybridoma activation by each AE101 series peptide. […]
# HLA-DR1 molecules = test: release of biotin-labeled hMBP(90-102) from HLA-DR1 without unlabeled antigenic peptide (assay I); type: binding, human; conditions: for Relative Release: Table 36, fraction of o.d. of positive control (PBS only = 1.0; negative control = 0.0); for Relative Release / Relative Release, Without unlabeled hMBP(90-102), 64 μM: AE101 series compound 64 μM; for Relative Release, Without unlabeled hMBP(90-102), 1 μM / Relative Release, Without unlabeled hMBP(90-102), 64 μM: Table 37, no unlabeled hMBP(90-102); for Relative Release, Without unlabeled hMBP(90-102), 1 μM: AE101 series compound 1 μM
Substance,"T cell response relative to baseline with PBS-pretreated APC (NONE = 1.0), E^k [1]","Times Baseline Response, A^d [2]",other results
Ac-LRMK D PK-NH2 (Ac-LRMKDPK-NH2) [AE230],1.6,,
Ac-SLRMKLPKSAK-NH2 [AE155],,0.8,
Ac-QLDSLRMKLPKSAK-NH2 [AE152],,0.9,
Ac-YRMKLPKSAK-NH2 [AE109],,0.9,
Ac-YRMK-NH2 [AE117],2.3,,
Ac-LQLDSLRMKLPKSAK-NH2 [AE151],,1.1,
Ac-NLQLDSLRMKLPKSAK-NH2 [AE150],,1.0,
Ac-LRMKLPKSAK-NH2 [AE110],,0.7,"activity in simultaneous assay in the A^d system, in words ([2]; 64 μM): not active"
YRMKLPKSAKPVSQMR [AE101],,,"release of hMBP(90-102) from HLA-DR1 (HLA-DR1 molecules; AE peptide at 125 nM, additional experiments): completely release; release of biotin-labeled hMBP(90-102) (Relative Release) (HLA-DR1 molecules; AE peptide at 1 μM without unlabeled hMBP(90-102)): 0.02; Relative Release (HLA-DR1 molecules): −0.33"
Ac-YRMKL hydrP KSAK-NH2 (Ac-YRMKL[hydrP]KSAK-NH2) [AE143],,,"Relative Release, Without unlabeled hMBP(90-102), 1 μM (HLA-DR1 molecules): 0.51; Relative Release, Without unlabeled hMBP(90-102), 64 μM (HLA-DR1 molecules): 0.58"
Ac-LR L KLPK-NH2 (Ac-LRLKLPK-NH2; not fully specified; printed as Ac-LR L KLPK-NH2) [AE206],2.7,,"Relative Release, Without unlabeled hMBP(90-102), 1 μM (HLA-DR1 molecules): 0.58; Relative Release, Without unlabeled hMBP(90-102), 64 μM (HLA-DR1 molecules): 0.08"
Ac-DSLRMKLPKSAK-NH2 [AE154],,1.1,
Ac-LRMK Y PK-NH2 (Ac-LRMKYPK-NH2; not fully specified; printed as Ac-LRMK Y PK-NH2) [AE235],2.1,,"release of biotin-labeled hMBP(90-102) from HLA-DR1 without second unlabeled antigenic peptide, in words (HLA-DR1 molecules; Table 36 (compounds tested at 64 μM)): did not release; Relative Release (HLA-DR1 molecules): 0.79; Relative Release, Without unlabeled hMBP(90-102), 1 μM (HLA-DR1 molecules): 1.05; Relative Release, Without unlabeled hMBP(90-102), 64 μM (HLA-DR1 molecules): 0.81"
Ac-LDSLRMKLPKSAK-NH2 [AE153],,1.2,
Ac-LRMKLPK-NH2 [AE114],2.0,,
